Measurements reported in patent US7186743B2, “Substituted pyrazolyl compounds for the treatment of inflammation” (Pharmacia Corporation, priority 2001, dated 2007).
Where a name gives a salt, the structure may show the parent alone. Read-outs that look alike come from different tables or passages of the source.

Target: T1, IKK2 (Homo sapiens, UniProt O14920)
T1 construct: made in house; host or cells: insect cells (baculovirus, pFastBac; SF9)
T1 sequence (O14920 1-756): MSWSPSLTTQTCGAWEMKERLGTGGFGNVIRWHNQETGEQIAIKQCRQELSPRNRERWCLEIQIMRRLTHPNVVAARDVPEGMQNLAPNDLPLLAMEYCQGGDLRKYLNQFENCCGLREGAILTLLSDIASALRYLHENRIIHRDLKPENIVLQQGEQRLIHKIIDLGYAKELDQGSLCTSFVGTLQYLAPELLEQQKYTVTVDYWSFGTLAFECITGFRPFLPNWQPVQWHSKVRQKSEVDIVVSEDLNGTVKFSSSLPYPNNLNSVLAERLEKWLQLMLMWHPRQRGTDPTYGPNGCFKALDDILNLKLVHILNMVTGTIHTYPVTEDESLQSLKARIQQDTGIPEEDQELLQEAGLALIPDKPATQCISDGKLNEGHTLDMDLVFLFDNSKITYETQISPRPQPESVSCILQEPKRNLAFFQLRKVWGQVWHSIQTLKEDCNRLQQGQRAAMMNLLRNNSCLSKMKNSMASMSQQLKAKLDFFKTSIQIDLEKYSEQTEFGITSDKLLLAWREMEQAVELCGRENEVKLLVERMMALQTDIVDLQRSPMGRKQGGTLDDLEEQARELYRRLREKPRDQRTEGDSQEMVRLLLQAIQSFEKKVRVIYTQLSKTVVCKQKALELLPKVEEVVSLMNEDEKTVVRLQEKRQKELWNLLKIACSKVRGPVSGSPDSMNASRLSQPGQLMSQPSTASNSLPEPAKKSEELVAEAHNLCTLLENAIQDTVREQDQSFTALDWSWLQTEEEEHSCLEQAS
Test: IKKβ Resin Enzyme Assay (IKK2 resin)
Type: biochemical
Method in brief: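 Enzyme: human IKK2 with a C-terminal FLAG tag, baculovirus-expressed, purified as homodimer on anti-FLAG resin. It phosphorylates a biotinylated IκBα peptide with 1 μM ATP plus [γ-33P]ATP in 25 mM Hepes pH 7.6, Mg/Mn, for 30 min at 25° C. Incorporation is counted by scintillation after anion-exchange resin stop.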

[1] = Table 14, read-out: IKK2 Resin IC50
[2] = Table 4, read-out: IKK2 Resin IC50
[3] = Table 6, read-out: IKK2 Resin IC 50
[4] = Table 2, read-out: IKK Resin IC50
[5] = Table 18, read-out: IKK2 Resin IC50
[6] = Table 3, read-out: IKK Resin IC50

SMILES: NC(=O)c1nn(-c2cccc(F)c2)c2c1CCc1ccc(NC(=O)c3cccnc3Cl)cc1-2 [Example 345, 8-{[(2-chloropyridin-3-yl)carbonyl]amino}-1-(3-fluorophenyl)-4,5-dihydro-1H-benzo[g]indazole-3-carboxamide]
- IC50 [1]: ≤ 1 µM

SMILES: CSc1ccc(-n2nc(C(N)=O)c3c2-c2cc(NS(C)(=O)=O)ccc2CC3)cc1 [Example 411, 8-[(methylsulfonyl)amino]-1-[4-(methylthio)phenyl]-4,5-dihydro-1H-benzo[g]indazole-3-carboxamide]
- IC50 (Table 19, read-out: IKK2 Resin IC50): ≤ 1 µM

SMILES: NC(=O)c1nn(-c2ccc3c(c2)OCO3)c2c1CCc1ccc(NC(=O)c3cc(F)c(F)cc3Cl)cc1-2 [Example 166, 1-(1,3-benzodioxol-5-yl)-8-[(2-chloro-4,5-difluorobenzoyl)amino]-4,5-dihydro-1H-benzo[g]indazole-3-carboxamide]
- IC50 [2]: ≤ 1 µM

SMILES: Cc1ccc(C(=O)Nc2ccc3c(c2)-c2c(c(C(N)=O)nn2-c2ccc(F)cc2)CC3)c(Cl)n1 [Example 227, 8-{[(2-chloro-6-methylpyridin-3-yl)carbonyl]amino}-1-(4-fluorophenyl)-4,5-dihydro-1H-benzo[g]indazole-3-carboxamide]
- IC50 [3]: ≤ 1 µM

SMILES: NC(=O)c1nn(-c2ccc(F)c(F)c2)c2c1CCc1ccc(NC(=O)c3ccncc3Cl)cc1-2 [Example 354, 8-[(3-chloroisonicotinoyl)amino]-1-(3,4-difluorophenyl)-4,5-dihydro-1H-benzo[g]indazole-3-carboxamide]
- IC50 [1]: ≤ 1 µM

SMILES: NC(=O)c1nn(-c2cccc(N)c2)c2c1CCc1ccc(NC(=O)c3ccccc3Cl)cc1-2 [Example 375, 1-(3-aminophenyl)-8-[(2-chlorobenzoyl)amino]-4,5-dihydro-1H-benzo[g]indazole-3-carboxamide]
- IC50 (Table 15, read-out: IKK2 Resin IC50): ≤ 1 µM

SMILES: CN(C)CC(=O)Nc1ccc(Cl)c(C(=O)Nc2ccc3c(c2)-c2c(c(C(N)=O)nn2-c2ccc(S(C)(=O)=O)cc2)CC3)c1 [Example 119, 8-({2-chloro-5-[(N,N-dimethylglycyl)amino]benzoyl}amino)-1-[4-(methylsulfonyl)phenyl]-4,5-dihydro-1H-benzo[g]indazole-3-carboxamidehydrochloride]
- IC50 [4]: ≤ 1 µM

SMILES: CS(=O)(=O)c1ccc(-n2nc(C(N)=O)c3c2-c2cc(NC(=O)c4cccc(Cl)c4F)ccc2CC3)cc1 [Example 104, 8-[(3-chloro-2-fluorobenzoyl)amino]-1-[4-(methylsulfonyl)phenyl]-4,5-dihydro-1H-benza[g]indazole-3-carboxamide]
- IC50 [4]: ≤ 1 µM

SMILES: CCS(=O)(=O)c1ccc(-n2nc(C(N)=O)c3c2-c2cc(NC(=O)c4cc(NC(C)=O)ccc4Cl)ccc2CC3)cc1 [Example 392, 8-{[5-(acetylamino)-2-chlorobenzoyl]amino}-1-[4-(ethylsulfonyl)phenyl]-4,5-dihydro-1H-benzo[g]indazole-3-carboxamide]
- IC50 [5]: ≤ 1 µM

SMILES: CS(=O)(=O)c1ccc(-n2nc(C(N)=O)c3c2-c2cc(NC(=O)c4cccc([N+](=O)[O-])c4Cl)ccc2CC3)cc1 [Example 135, 8-[(2-chloro-3-nitrobenzoyl)amino]-1-[4-(methylsulfonyl)phenyl]-4,5-dihydro-1H-benzo[g]indazole-3-carboxamide]
- IC50 [6]: ≤ 1 µM

SMILES: Cc1ccncc1C(=O)Nc1ccc2c(c1)-c1c(c(C(N)=O)nn1-c1ccc3c(c1)OCO3)CC2 [Example 187, 1-(1,3-benzodioxol-5-yl)-8-{[(4-methylpyridin-3-yl)carbonyl]amino}-4,5-dihydro-1H-benzo[g]indazole-3-carboxamide]
- IC50 [2]: ≤ 1 µM

SMILES: NC(=O)c1nn(-c2ccc3c(c2)OCO3)c2c1CCc1ccc(NC(=O)c3cccc(N)c3Cl)cc1-2 [Example 171, 8-[(3-amino-2-chlorobenzoyl)amino]-1-(1,3-benzodioxol-5-yl)-4,5-dihydro-1H-benzo[g]indazole-3-carboxamidehydrochloride]
- IC50 [2]: ≤ 1 µM

SMILES: CN1CCN(c2ccc(Cl)c(C(=O)Nc3ccc4c(c3)-c3c(c(C(N)=O)nn3-c3ccc(F)cc3)CC4)n2)CC1 [Example 256, 8-({[3-chloro-6-(4-methylpiperazin-1-yl)pyridin-2-yl]carbonyl}amino)-1-(4-fluorophenyl)-4,5-dihydro-1H-benzo[g]indazole-3-carboxamide]
- IC50 (Table 7, read-out: IKK2 Resin IC50): ≤ 1 µM

SMILES: CS(=O)(=O)c1ccc(-n2nc(C(N)=O)c3c2-c2cc(NC(=O)c4ccncc4)ccc2CC3)cc1 [Example 110, 8-(isonicotinoylamino)-1-[4-(methylsulfonyl)phenyl]-4,5-dihydro-1H-benzo[g]indazole-3-carboxamide]
- IC50 [4]: ≤ 1 µM

SMILES: NC(=O)c1nn(-c2ccc(N)nc2)c2c1CCc1ccc(NC(=O)c3ccncc3Cl)cc1-2 [Example 381, 1-(6-aminopyridin-3-yl)-8-[(3-chloroisonicotinoyl)amino]-4,5-dihydro-1H-benzo[g]indazole-3-carboxamide]
- IC50 (Table for Examples 381-385 (headed TABLE 14), read-out: IKK2 Resin IC50): ≤ 1 µM

SMILES: NC(=O)c1nn(-c2ccc(Br)cc2)c2c1CCc1ccc(NC(=O)c3ccccc3Cl)cc1-2 [Example 350, 1-(4-bromophenyl)-8-[(2-chlorobenzoyl)amino]-4,5-dihydro-1H-benzo[g]indazole-3-carboxamide]
- IC50 [1]: ≤ 1 µM

SMILES: NC(=O)c1nn(-c2ccc3c(c2)OCO3)c2c1CCc1ccc(NC(=O)c3cc(N)ccc3Cl)cc1-2 [Example 172, 8-[(5-amino-2-chlorobenzoyl)amino]-1-(1,3-benzodioxol-5-yl)-4,5-dihydro-1H-benzo[g]indazole-3-carboxamide]
- IC50 [2]: ≤ 1 µM

SMILES: CS(=O)(=O)c1ccc(-n2nc(C(N)=O)c3c2-c2cc(NC(=O)c4ccccc4Cl)ccc2CC3)nc1 [Example 367, 8-[(2-chlorobenzoyl)amino]-1-[5-(methylsulfonyl)pyridin-2-yl]-4,5-dihydro-1H-benzo[g]indazole-3-carboxamide]
- IC50 (read-out: IKK-2 resin IC50): ≤ 1 µM

SMILES: CS(=O)(=O)c1ccc(-n2nc(C(N)=O)c3c2-c2cc(NC(=O)c4c(F)cccc4Cl)ccc2CC3)cc1 [Example 134, 8-[(2-chloro-6-fluorobenzoyl)amino]-1-[4-(methylsulfonyl)phenyl]-4,5-dihydro-1H-benzo[g]indazole-3-carboxamide]
- IC50 [6]: ≤ 1 µM

SMILES: NC(=O)c1nn(-c2ccc3c(c2)OCO3)c2c1CCc1ccc(NC(=O)c3ccc(F)cc3Cl)cc1-2 [Example 164, 1-(1,3-benzodioxol-5-yl)-8-[(2-chloro-4-fluorobenzoyl)amino]-4,5-dihydro-1H-benzo[g]indazole-3-carboxamide]
- IC50 [2]: ≤ 1 µM

SMILES: NC(=O)c1nn(-c2ccc(CCC(=O)CO)cc2)c2c1CCc1ccc(NC(=O)c3ccccc3Cl)cc1-2 [Example 299, 8-[(2-chlorobenzoyl)amino]-1-[4-(4-hydroxy-3-oxobutyl)phenyl]-4,5-dihydro-1H-benzo[g]indazole-3-carboxamide]
- IC50 (Table 11, read-out: IKK2 Resin IC50): ≤ 1 µM

SMILES: NC(=O)c1nn(-c2ccc3c(c2)OCO3)c2c1CCc1ccc(NC(=O)c3ccncc3)cc1-2 [Example 196, 1-(1,3-benzodioxol-5-yl)-8-(isonicotinoylamino)-4,5-dihydro-1H-benzo[g]indazole-3-carboxamide]
- IC50 [2]: ≤ 1 µM

SMILES: CS(=O)(=O)c1ccc(-n2nc(C(N)=O)c3c2-c2cc(NC(=O)c4cc(SC#N)ccc4[N+](=O)[O-])ccc2CC3)cc1 [Example 148, 3-[({3-(aminocarbonyl)-1-[4-(methylsulfonyl)phenyl]-4,5-dihydro-1H-benzo[g]indazol-8-yl}amino)carbonyl]-4-nitrophenylthiocyanate]
- IC50 [6]: ≤ 1 µM

SMILES: CCS(=O)(=O)c1ccc(-n2nc(C(N)=O)c3c2-c2cc(NC(=O)c4ccccc4Cl)ccc2CC3)cc1 [Example 395, 8-[(2-chlorobenzoyl)amino]-1-[4-(ethylsulfonyl)phenyl]-4,5-dihydro-1H-benzo[g]indazole-3-carboxamide]
- IC50 [5]: ≤ 1 µM

SMILES: CC(C)NCC(=O)Nc1ccc2c(c1)-c1c(c(C(N)=O)nn1-c1ccc3c(c1)OCO3)CC2 [Example 444, 1-(1,3-benzodioxol-5-yl)-8-[(N-isopropylglycyl)amino]-4,5-dihydro-1H-benzo[g]indazole-3-carboxamide]
- IC50 (Table 23, read-out: IKK2 Resin IC50): ≤ 1 µM

SMILES: NC(=O)c1nn(-c2ccc3c(c2)OCO3)c2c1CCc1ccc(NC(=O)c3ccc(O)nc3)cc1-2 [Example 186, 1-(1,3-benzodioxol-5-yl)-8-{[(6-hydroxypyridin-3-yl)carbonyl]amino}-4,5-dihydro-1H-benzo[g]indazole-3-carboxamide]
- IC50 [2]: ≤ 1 µM

SMILES: NC(=O)c1nn(-c2ccc(F)cc2)c2c1CCc1ccc(NC(=O)c3cc(Cl)cnc3Cl)cc1-2 [Example 223, 8-{[(2,5-dichloropyridin-3-yl)carbonyl]amino}-1-(4-fluorophenyl)-4,5-dihydro-1H-benzo[g]indazole-3-carboxamide]
- IC50 [3]: ≤ 1 µM
